{"source": "patent US20250367187A1", "about": "“QUINOLINE DERIVATIVE USED FOR TREATING SMALL CELL LUNG CANCER” (CHIA TAI TIANQING PHARMACEUTICAL GROUP CO., LTD., priority 2018, published 2025)", "key": {"[1]": {"system": "patients with relapsed small cell lung cancer", "test": "Multicenter, randomized, double-blind, placebo-controlled phase II clinical study", "format": "in vivo, human", "experimental": "A multicenter, randomized, double-blind and placebo-controlled phase II clinical study was conducted for patients with relapsed small cell lung cancer characterized by presence of measurable lesions and prior standard treatment. In this study; 120 patients were enrolled and randomized to receive oral administration of 1 capsule of the dihydrochloride of the compound of formula I at 12 mg/0 mg once daily. The oral administration was continued for 2 weeks and interrupted for 1 week, i.e., 1 treatment cycle took 3 weeks (21 days). These patients aged 18-75 were treated with the capsule of the dihydrochloride of the compound of formula I and placebo control, and patients who had previously used other targeted drugs (such as sunitinib, bevacizumab, and endostar) and immunotargeted drugs were excluded. In the case of progressive disease (PD) determined by the response evaluation criteria or judged clinically; treatment with other anti-tumor drugs (such as chemotherapy; targeted therapy or biological agent therapy) influencing the judgment of efficacy; unexpected pregnancy; death and the like, the administration was interrupted (terminated) for a subject. For patients with disease under control (CR+PR+SD) and tolerable adverse reactions, the administration was continued. For patients who were unsuitable for continued administration judged by the investigator or were evaluated as PD according to RECIST 1.1 criteria, the administration was terminated. During the administration, depending on the drug-related toxicity degree and the possible efficacy benefit of a patient, the investigator determined whether to adjust the dosage, and the adjustable dosage was 8 mg/0 mg or 10 mg/0 mg. The primary efficacy endpoint was progression-free survival (PFS), and the secondary efficacy endpoints were overall survival (OS), objective response rate (ORR) (CR+PR), disease control rate (DCR) (CR+PR+SD), quality of life score and safety: The objective efficacy endpoint was evaluated according to the response evaluation criteria in solid tumor (RECIST 1.1). All statistical analyses were conducted using the SAS 9.2 statistical analysis software programming. All statistical tests were conducted using bilateral test. When P value≤0.05, the tested difference was considered statistically significant, with the confidence interval being 95% confidence. For the primary efficacy endpoint PFS, 50% (median) PFS and PFS at different time points after the start of the treatment were calculated by using the product limit method according to the data situation, and the two groups were compared using Log-Rank test. For OS, 50% (median) OS was calculated by using the product limit method according to the data situation, and the two groups were compared using Log-Rank test. The full analysis set (FAS) was used for the statistical dataset."}, "[2]": {"system": "small cell lung cancer with liver and brain metastases", "test": "Case of a patient with small cell lung cancer with liver and brain metastases (CT follow-up)", "format": "in vivo, human", "experimental": "A person was pathologically diagnosed with small cell lung cancer of the left lower lobe in October 2013 after surgery. On Dec. […] The patient was admitted to the hospital for one cycle of liposomal paclitaxel+carboplatin+temozolomide chemotherapy and was discharged on December 28.\nOne cycle of TC regimen (paclitaxel+carboplatin) was started on Jan. 17, 2017, and the efficacy was evaluated as PD on Feb. 10, 2017. One cycle of IP regimen (irinotecan 120 mg d1, 80 mg d8; cisplatin 100 mg d1) was started on Feb. 16, 2017.\nOn May 12, 2017, oral administration of a capsule of the dihydrochloride of the compound of formula I at 12 mg was started once daily for 2 weeks and interrupted for 1 week, every 3-week as one treatment cycle until PD or intolerance.\nThe CT results were as follows: • After the first treatment cycle: target lesion: 63 mm; non-target lesions: non-CR/non-PD. • After the second treatment cycle: target lesion: 65 mm; non-target lesions: non-CR/non-PD. • After the fourth treatment cycle: target lesion: 66 mm; non-target lesions: non-CR/non-PD. • After the sixth treatment cycle: target lesion: 72 mm; non-target lesions: non-CR/non-PD. 1-20. (canceled)"}, "[3]": {"conditions": "CR or PR achieved with second-line chemotherapy: No"}, "[4]": {"conditions": "CR or PR achieved with second-line chemotherapy: Yes"}, "[5]": {"conditions": "all patients, FAS, capsule 12 mg oral once daily, 2 weeks on / 1 week off"}, "[6]": {"conditions": "brain metastasis upon enrollment: Yes"}, "[7]": {"conditions": "clinical stage before randomization: extended stage"}, "[8]": {"conditions": "after the fourth treatment cycle"}, "[9]": {"conditions": "after the second treatment cycle"}, "[10]": {"conditions": "after the sixth treatment cycle"}}, "note": "Counter-ions that a name gives are not always drawn.", "data": [{"compound": "COc1cc2c(Oc3ccc4[nH]c(C)cc4c3F)ccnc2cc1OCC1(N)CC1", "note": "[1-[[[4-(4-fluoro-2-methyl-1H-indol-5-yl)oxy-6-methoxyquinolin-7-yl]oxy]methyl]cyclopropylamine dihydrochloride]", "values": [{"measurement": "Overall survival P50", "setting": "[1]; [3]", "result": 7.29, "unit": "month"}, {"measurement": "Progression-free survival P50", "setting": "[1]; [3]", "result": 4.11, "unit": "month"}, {"measurement": "Overall survival P50", "setting": "[1]; [4]", "result": 6.80, "unit": "month"}, {"measurement": "Progression-free survival P50", "setting": "[1]; [4]", "result": 2.79, "unit": "month"}, {"measurement": "Overall survival of patients (OS), Median (95% CI)", "setting": "[1]; [5]", "result": "7.29(6.50, 10.51) month"}, {"measurement": "Progression-free survival of patients (PFS), Median (95% CI)", "setting": "[1]; [5]", "result": "4.07(2.79, 4.24) month"}, {"measurement": "Overall survival P50", "setting": "[1]; brain metastasis upon enrollment: No", "result": 8.80, "unit": "month"}, {"measurement": "Overall survival P50", "setting": "[1]; [6]", "result": 6.08, "unit": "month"}, {"measurement": "Progression-free survival P50", "setting": "[1]; [6]", "result": 3.84, "unit": "month"}, {"measurement": "Overall survival P50", "setting": "[1]; chemotherapy line: second-line", "result": 7.29, "unit": "month"}, {"measurement": "Progression-free survival P50", "setting": "[1]; chemotherapy line: second-line", "result": 4.11, "unit": "month"}, {"measurement": "Overall survival P50", "setting": "[1]; [7]", "result": 8.05, "unit": "month"}, {"measurement": "Progression-free survival P50", "setting": "[1]; [7]", "result": 3.84, "unit": "month"}, {"measurement": "Progression-free survival P50", "setting": "[1]; clinical stage before randomization: limited stage", "result": 4.83, "unit": "month"}, {"measurement": "Progression-free survival P50", "setting": "[1]; treated with docetaxel: No", "result": 4.07, "unit": "month"}, {"measurement": "Progression-free survival P50", "setting": "[1]; treated with docetaxel: Yes", "result": 2.83, "unit": "month"}, {"measurement": "Progression-free survival P50", "setting": "[1]; treated with irinotecan + platinum: No", "result": 2.83, "unit": "month"}, {"measurement": "Progression-free survival P50", "setting": "[1]; treated with irinotecan + platinum: Yes", "result": 4.07, "unit": "month"}, {"measurement": "Progression-free survival P50", "setting": "[1]; treated with paclitaxel: No", "result": 4.11, "unit": "month"}, {"measurement": "Progression-free survival P50", "setting": "[1]; treated with paclitaxel: Yes", "result": 2.86, "unit": "month"}, {"measurement": "target lesion (CT)", "setting": "[2]; after the first treatment cycle, liver nodes, 64 mm before treatment, 12 mg once daily 2 weeks on / 1 week off", "result": 63, "unit": "mm"}, {"measurement": "non-target lesions (CT)", "setting": "[2]; after the first treatment cycle, multiple metastases in the brain", "result": "non-CR/non-PD"}, {"measurement": "non-target lesions (CT)", "setting": "[2]; [8]", "result": "non-CR/non-PD"}, {"measurement": "target lesion (CT)", "setting": "[2]; [8]", "result": 66, "unit": "mm"}, {"measurement": "non-target lesions (CT)", "setting": "[2]; [9]", "result": "non-CR/non-PD"}, {"measurement": "target lesion (CT)", "setting": "[2]; [9]", "result": 65, "unit": "mm"}, {"measurement": "non-target lesions (CT)", "setting": "[2]; [10]", "result": "non-CR/non-PD"}, {"measurement": "target lesion (CT)", "setting": "[2]; [10]", "result": 72, "unit": "mm"}, {"measurement": "tolerability of the administration", "setting": "[2]; capsule 12 mg oral once daily, 2 weeks on / 1 week off", "result": "well tolerated"}]}]}
